# Data taken from patent US10544153B2, “Benzoic acid, benzoic acid derivatives and heteroaryl carboxylic acid conjugates of oxycodone, prodrugs, methods of making and use thereof” (KemPharm, Inc., priority 2014, dated 2020).
# Columns and labels:
# [1] = Oral PK in rats: plasma concentrations of oxymorphone by LC-MS/MS; details: oxymorphone released; for AUC / Cmax / tmax: conjugate equivalent to 2 mg/kg freebase oxycodone; for %-AUC of OC / %-Cmax of OC / %-tmax of OC: relative to oxycodone (OC)
# [2] = Oral PK in rats: plasma concentrations of released oxycodone by LC-MS/MS; details: for AUC / Cmax / tmax: conjugate equivalent to 2 mg/kg freebase oxycodone; for %-AUC of OC / %-Cmax of OC / %-tmax of OC: relative to oxycodone (OC)
# [3] = Tamper resistance: percent of OC released under tampering conditions, LC-MS/MS; assay type: physicochemical; details: RT
# Experimental: Effective abuse deterrent forms of drugs of abuse can also be resistant to chemical tampering. The prodrugs in the present technology also impart this characteristic. Several common tampering scenarios were employed and percent of OC released were determined by liquid chromatography with tandem mass spectrometry (LC-MS/MS). The results as shown in Table 7 indicated a very high degree of tamper resistance in the example OC prodrugs, releasing little to no OC.
# [4] = Intranasal PK in rats (Table 4); details: title: oxymorphone released (released oxycodone); for Cmax / tmax: equivalent to 2 mg/kg freebase oxycodone; for %-Cmax of OC / %-tmax of OC: relative to oxycodone (OC)
# [5] = Intranasal PK in rats: plasma concentrations of released oxymorphone by LC-MS/MS; details: for AUC / Cmax / tmax: Table 6, equivalent to 2 mg/kg freebase oxycodone; for %-AUC of OC / %-Cmax of OC / %-tmax of OC: Table 6, relative to oxycodone (OC)
Compound,AUC [1],Cmax [1],tmax [1],%-AUC of OC [1],%-Cmax of OC [1],%-tmax of OC [1],AUC [2],Cmax [2],tmax [2],%-AUC of OC [2],%-Cmax of OC [2],%-tmax of OC [2],"percent of OC released ([3]; 1N HCl, 1 hour)","percent of OC released ([3]; 5% Bicarbonate, 1 hour)","percent of OC released ([3]; Water, 1 hour)","percent of OC released ([3]; Water, 24 hours)",also measured
COc1ccc2c3c1OC1C(OC(=O)C(C)c4cccc(Oc5ccccc5)c4)=CCC4(O)C(C2)N(C)CCC314 (mixture of isomers) [6-Fenoprofen-OC],4.6 ng·h/mL,3.3 ng/mL,15 min,67%,68%,100%,21.6 ng·h/mL,14.0 ng/mL,15 min,69%,87%,83%,–,–,–,–,–
COc1ccc2c3c1OC1C(OC(=O)C(C)c4cccc(C(=O)c5ccccc5)c4)=CCC4(O)C(C2)N(C)CCC314 (mixture of isomers) [6-Ketoprofen-OC],4.3 ng·h/mL,3.7 ng/mL,15 min,62%,77%,100%,25.5 ng·h/mL,14.7 ng/mL,15 min,81%,91%,83%,2%,3%,0%,<1%,–
COc1ccc2c3c1OC1C(OC(=O)C(C)c4ccc(CC(C)C)cc4)=CCC4(O)C(C2)N(C)CCC314 (mixture of isomers) [Conjugate 6-lbu-OC],8.4 ng·h/mL,3.7 ng/mL,69 min,83%,59%,131%,77.9 ng·h/mL,39.5 ng/mL,26.4 min,83%,62%,47%,2%,2%,0%,0%,Cmax [4]: 131.7 ng/mL; tmax [4]: 4.98 min; %-Cmax of OC [4]: 10%; %-tmax of OC [4]: 100%; AUC [5]: 0.7 ng·h/mL; Cmax [5]: 1.0 ng/mL; tmax [5]: 30 min; %-AUC of OC [5]: 11%; %-Cmax of OC [5]: 11%; %-tmax of OC [5]: 143%
COc1cc(C(=O)OC2=CC[C@@]3(O)[C@H]4Cc5ccc(OC)c6c5[C@@]3(CCN4C)[C@H]2O6)ccc1O [4-OH-3-MeO-Bz-OC],–,–,–,–,–,–,–,–,–,–,–,–,0%,0%,0%,0%,–
COc1ccc2c3c1O[C@H]1C(OC(=O)/C=C/c4ccccc4)=CC[C@@]4(O)[C@@H](C2)N(C)CC[C@]314 [6-Cinnamate-OC],9.2 ng·h/mL,4.3 ng/mL,21 min,91%,68%,40%,55.9 ng·h/mL,35.5 ng/mL,18 min,60%,56%,32%,0%,<1%,0%,0%,Cmax [4]: 497.2 ng/mL; tmax [4]: 4.98 min; %-Cmax of OC [4]: 22%; %-tmax of OC [4]: 100%; AUC [5]: 1.7 ng·h/mL; Cmax [5]: 2.4 ng/mL; tmax [5]: 30 min; %-AUC of OC [5]: 18%; %-Cmax of OC [5]: 18%; %-tmax of OC [5]: 133%
COc1ccc2c3c1O[C@H]1C(OC(=O)c4cccc(N)c4)=CC[C@@]4(OC(=O)c5cccc(N)c5)[C@@H](C2)N(C)CC[C@]314 [(3-ABz)2-OC],–,–,–,–,–,–,–,–,–,–,–,–,0%,0%,0%,0%,–
COc1ccc2c3c1O[C@H]1C(OC(=O)c4cccc(O)c4)=CC[C@@]4(OC(=O)c5cccc(O)c5)[C@@H](C2)N(C)CC[C@]314 [(3-OH-Bz)2-OC],–,–,–,–,–,–,–,–,–,–,–,–,0%,0%,0%,0%,–
COc1ccc(C(=O)OC2=CC[C@@]3(OC(=O)c4ccc(OC)cc4)[C@H]4Cc5ccc(OC)c6c5[C@@]3(CCN4C)[C@H]2O6)cc1 [(4-MeO-Bz)2-OC],–,–,–,–,–,–,–,–,–,–,–,–,0%,0%,0%,0%,–
COc1cc(C(=O)OC2=CC[C@@]3(OC(=O)c4ccc(O)c(OC)c4)[C@H]4Cc5ccc(OC)c6c5[C@@]3(CCN4C)[C@H]2O6)ccc1O [(4-OH-3-MeO-Bz)2-OC],–,–,–,–,–,–,–,–,–,–,–,–,0%,0%,0%,0%,–
COc1ccc2c3c1O[C@H]1C(OC(=O)c4ccc(O)cc4)=CC[C@@]4(OC(=O)c5ccc(O)cc5)[C@@H](C2)N(C)CC[C@]314 [(4-OH-Bz)2-OC],–,–,–,–,–,–,–,–,–,–,–,–,0%,0%,0%,0%,–
COc1ccc2c3c1O[C@H]1C(OC(=O)c4ccccc4)=CC[C@@]4(OC(=O)c5ccccc5)[C@@H](C2)N(C)CC[C@]314 [(Bz)2-OC],–,–,–,–,–,–,–,–,–,–,–,–,0%,0%,0%,0%,–
COc1ccc2c3c1O[C@H]1C(OC(=O)/C=C/c4ccccc4)=CC[C@@]4(OC(=O)/C=C/c5ccccc5)[C@@H](C2)N(C)CC[C@]314 [(Cin)2-OC],–,–,–,–,–,–,–,–,–,–,–,–,0%,0%,0%,0%,–
COc1ccc2c3c1O[C@H]1C(OC(=O)c4ccccc4)=CC[C@@]4(O)[C@@H](C2)N(C)CC[C@]314 [Bz-OC],–,–,–,–,–,–,–,–,–,–,–,–,0%,0%,0%,0%,–
COc1ccc2c3c1O[C@H]1C(OC(=O)c4ccccc4N)=CC[C@@]4(O)[C@@H](C2)N(C)CC[C@]314 [Conjugate 2-ABz-OC],–,–,–,–,–,–,–,–,–,–,–,–,0%,3%,<1%,<1%,–
COc1ccc2c3c1O[C@H]1C(OC(=O)c4ccccc4O)=CC[C@@]4(O)[C@@H](C2)N(C)CC[C@]314 [Conjugate 2-OH-Bz-OC],–,–,–,–,–,–,–,–,–,–,–,–,0%,5%,0%,0%,–
COc1ccc2c3c1O[C@H]1C(OC(=O)c4cccc(N)c4)=CC[C@@]4(O)[C@@H](C2)N(C)CC[C@]314 [Conjugate 3-ABz-OC],3.6 ng·h/mL,2.0 ng/mL,26.4 min,69%,49%,97%,52.9 ng·h/mL,45.5 ng/mL,33 min,83%,96%,122%,<1%,<1%,0%,0%,–
COc1ccc2c3c1O[C@H]1C(OC(=O)c4cccc(O)c4)=CC[C@@]4(O)[C@@H](C2)N(C)CC[C@]314 [Conjugate 3-OH-Bz-OC],–,–,–,–,–,–,–,–,–,–,–,–,<1%,0%,0%,0%,–
COc1ccc(C(=O)OC2=CC[C@@]3(O)[C@H]4Cc5ccc(OC)c6c5[C@@]3(CCN4C)[C@H]2O6)cc1 [Conjugate 4-MeO-Bz-OC],6.7 ng·h/mL,4.7 ng/mL,15 min,51%,63%,83%,55.5 ng·h/mL,28.5 ng/mL,15 min,59%,61%,33%,<1%,<1%,0%,<1%,Cmax [4]: 949.4 ng/mL; tmax [4]: 4.98 min; %-Cmax of OC [4]: 48%; %-tmax of OC [4]: 100%; AUC [5]: 7.2 ng·h/mL; Cmax [5]: 9.4 ng/mL; tmax [5]: 22 min; %-AUC of OC [5]: 65%; %-Cmax of OC [5]: 60%; %-tmax of OC [5]: 105%
COc1ccc2cc(C(C)C(=O)OC3=CCC4(O)C5Cc6ccc(OC)c7c6C4(CCN5C)C3O7)ccc2c1 (stereo not drawn) [Naprox-OC],–,–,–,–,–,–,–,–,–,–,–,–,<1%,0%,0%,0%,–
